Reference: patent US7449495B2, “Retinoid derivatives with antiangiogenic, antitumoral and proapoptotic activities” (Sigma-Tau Industrie Farmaceutiche Riunite S.p.A., priority 2001, dated 2008)

Key:
[1] = test system: Human ovarian carcinoma IGROV-1/Pt (platinum resistant); assay: Cytotoxicity test (sulphorodamine B), IGROV-1/Pt; type: cell-based; conditions: 24 h incubation, survival 48 h after removal
From the text: (§1) Different cell lines deriving from solid tumors were also used. • 1. Human prostate carcinoma PC3 and DU145. These cell lines were maintained in RPMI 1640 medium containing 10% FCS, 1% sodium pyruvate and 1% glutamine; • 2. Human colon adenocarcinoma LoVo. This cell line was maintained in HAM's F-12 medium, containing 10% FCS and 1% glutamine. • 3. Human ovarian carcinoma such as A2780 and A2780/Dx, sensitive and resistant to drugs, respectively (doxorubicin, taxol, etoposide, vincristine); IGROV-1 and IGROV-1/Pt, sensitive and resistant to platinum-based chemotherapy, respectively, were maintained in RPMI 1640 medium containing 10% FCS, 1% sodium pyruvate and 1% glutamine; • 4. Human melanoma MeWo and MeS 2.21, glioblastoma GBM, no small cell lung carcinomas A431, NCI—H460, osteosarcomas SAOS and U2OS were maintained in RPMI 1640 medium containing 10% FCS, 1% sodium pyruvate and 1% glutamine.
(§2) The cytotoxicity tests were carried out using NB4 or HL-60 cells in suspension (10000/well). The cells were seeded in a volume of 250 μl in 96 well plates and incubated for 24 hours at 37° C. […] The optical density was measured using a Multiskan spectrophotometer at 540 nm. […]
(§3) Cell survival was determined by incubation with ST1926 for 24 hours, 48 hours after the removal of the compound. […]

[2] = test system: Human melanoma MeWo; assay: Cytotoxicity test (sulphorodamine B), MeWo; type: cell-based; conditions: 24 h incubation, survival 48 h after removal
From the text: as §1, §2, §3

[3] = test system: glioblastoma GBM; assay: Cytotoxicity test (sulphorodamine B), GBM; type: cell-based; conditions: Homo sapiens, 24 h incubation, survival 48 h after removal
From the text: as §1, §2, §3

[4] = test system: Human prostate carcinoma PC3; assay: Cytotoxicity test (sulphorodamine B), PC3; type: cell-based; conditions: 24 h incubation, survival 48 h after removal, read-out: IC50
From the text: as §1, §2, §3

[5] = test system: M109 murine lung carcinoma cells; assay: Cytotoxicity in combination with TRAIL, M109; type: cell-based; conditions: M109, 72 hours, value >1 synergism (FIG. 2)
Protocol: FIG. 2 is a graph showing the interaction between ST1926 and TRAIL in M109 murine lung carcinoma cells at different concentrations of TRAIL.
A study of cytotoxicity of ST1926 in combination with TRAIL was performed in two different tumor cell lines such as M109 murine lung carcinoma and A2780/Dx multidrug-resistant human ovarian carcinoma. Cells were maintained in RPMI 1640 medium containing 10% FCS, 1% sodium pyruvate and 1% glutamine.
The cells were seeded in a volume of 250 μl in 96 well plates and incubated for 24 hours at 37° C. The following day, test compound ST 1926 [(2E)-3-[3′-(1-Adamantyl)-4′-hydroxy[1,1′-biphenyl]-4-yl]-2-propenoate/ic acid] or TRAIL were added at increasing concentrations, and the cells were incubated for a further 72 hours at 37° C. in a humidified atmosphere containing 5% CO2. On the 5th day, the supernatant was removed by upturning the plates. 200 μl of PBS and 50 μl of cold, 80% TCA were added. The plates were then left to incubate on ice for at least 1 hour. The TCA was removed by upturning; the plates were washed three times by immersion in distilled water and dried first on paper, then with a jet of hot air. […] The optical density was measured using a Multiskan spectrophotometer at 540 nm.
The interaction between ST1926 and TRAIL was determined by using the analysis of Drewinko et al. (Cancer Biochem. Biophys. 1: 187-195, 1976). […]

[6] = test system: KG-1 and HL-60R leukemia and MDA-MB-231 breast cancer cells; conditions: cited from earlier work

SMILES: O=C(O)/C=C/c1ccc(-c2ccc(O)c(C34CC5CC(CC(C5)C3)C4)c2)cc1 [ST1926, E-4-(3-(1-adamantyl)-4-hydroxyphenyl)cinnamic acid]
- IC50 [1]: 330 nM
- IC50 [2]: 230 nM
- IC50 [3]: 180 nM
- IC50 [4]: 210 nM
- interaction between ST1926 and TRAIL (analysis of Drewinko et al.) [5]: synergic activity
- induction of cancer cell apoptosis (in words) [6]: effectively induced cancer cell apoptosis
